# Data from patent US6030960A, “Method of treating hepatitis virus infections” (priority 1998, dated 2000).
# “And” between values parts separate entries of the source, which are not always exact repeats. Identical values can stand only once. “Also recorded” adds a separate entry of the source. Like-named read-outs stand apart in the source and are kept apart here.
# Experiments:
# Type in all cases: cell-based
# [1] = system: Hepatitis B virus; experiment: Anti-hepatitis B virus activity in HEP-G2 cells persistently infected with HBV (Table 2); conditions: for activity at 10 µM: Hepatitis B virus, HepG2, 216 h
# Procedure, shortened: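 HBV-persistently infected HepG2 cells were dosed daily with 10 μM compound in 20% FBS medium for 9 days. Medium HBsAg and HBeAg were measured by EIA and virion DNA by slot-blot hybridisation, each relative to untreated controls. EC90 (90% drop in HBV DNA replication intermediates) came from linear regression.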
# [2] = system: Hepatitis B virus; experiment: Effect of alkyl lipid on HBV induction of antigen markers, DNA and RNA in persistently infected human HEP-G2 cell cultures (Table 8); conditions: for activity at 10 µM: Hepatitis B virus, HepG2, 216 h
# Description: Further analyses were carried out with compound CP-51. Again, the cells were treated for nine days at 37° C. The overlay medium was harvested to measure levels of HBsAg, HBeAg, HBcAg, virion DNA, RI DNA and RNA levels. HBsAg and HBeAg were assayed by EIA (Abbott Laboratories). HBcAg was assayed by a solid phase EIA. HBV RNA was analyzed by Northern blot hybridization using a ^32 P-labelled 3.2 Kb genomic probe. Intracellular HBV RNA and RI HBV DNA was quantitated using a AMBIS beta scanner.
# [3] = Cytotoxicity in HBV persistently infected human HEP G2 cells, neutral red dye uptake (Table 5); conditions: human, hep-g2 cells
# Procedure, shortened: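 HBV-transfected HEP-G2 monolayers in RPMI-1640 were given compound at four serial concentrations in triplicate for nine days at 37 °C, with periodic medium replacement. Toxicity from 0.01% neutral red uptake (A510), as percent of nine untreated control wells on the same plate.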
# [4] = system: Hepatitis B virus; experiment: Effect of alkyl lipids on HBV replication in HBV persistently infected human HEP G2 cells (Table 6); conditions: for Intracellular HBV DNA, Mono (episomal 3.2-3.8 Kb HBV genomes) / Intracellular HBV DNA, RI (replication intermediates): nine days
# Procedure, shortened: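 Persistently HBV-infected HepG2 cells exposed to compound for nine days at 37 °C, intracellular HBV DNA analysed 24 h after day nine. Episomal 3.2-3.8 Kb genomes and replication intermediates normalized to integrated HBV DNA; virion DNA detection cut-off 0.1 pg DNA/ml culture medium.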
# [5] = system: Hepatitis B virus; experiment: Effect on synthesis of antigen markers in persistently infected human HEP G2 cell cultures (Table 7); conditions: for activity at 10 µM: Hepatitis B virus, HepG2, 216 h
# Procedure, shortened: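 Persistently infected HepG2 cells treated with compound for nine days at 37° C. Culture medium then harvested: HBsAg and HBeAg quantified by EIA, virion DNA by hybridisation-based DNA measurement. Sensitivity cut-off 0.1 pg DNA/ml medium.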
# [6] = % of Control Neutral Red Dye Uptake
# [7] = read-out: Relative Level of HBeAg
# [8] = read-out: Relative Level of HBsAg
# [9] = read-out: Relative Level of Virion DNA
# [10] = Trial 1, read-out: % of Control Neutral Red Dye Uptake
# [11] = Trial 3, read-out: % of Control Neutral Red Dye Uptake
structure (smiles),measurement,setting,value
"CCCCCCCCCCCCCCCCCC(=O)NCC(COP(=O)([O-])OCC[N+](C)(C)C)OCC (racemic) [CP-51, rac-3-octadecanamido-2-ethyoxy-1-propylphosphocholine]",activity against HBV-induced virion DNA and HBeAg syntheses,"[1]; 10 μM, in words",potent inhibitory activity
same,activity at 10 µM,"[1]; 10 μM, 9 days treatment, read-out: Relative Level of HBeAg",28%
same,activity at 10 µM,"[1]; 10 μM, 9 days treatment, read-out: Relative Level of HBsAg",99%
same,activity at 10 µM,"[1]; 10 μM, 9 days treatment, read-out: Relative Level of Virion DNA",2%
same,anti-HBV activity,[1]; in words,most potent anti-HBV compound; also recorded: most potent anti-HBV activity
same,activity at 10 µM,"[2]; 10 μM, nine days, untreated controls 100, read-out: Relative Level of HBcAg",32%
same,activity at 10 µM,"[2]; 10 μM, nine days, untreated controls 100, read-out: Relative Level of HBeAg",24%
same,activity at 10 µM,"[2]; 10 μM, nine days, untreated controls 100, read-out: Relative Level of HBsAg",88%
same,activity at 10 µM,"[2]; 10 μM, nine days, untreated controls 100, read-out: Relative Level of Intracellular HBV-DNA",12%
same,activity at 10 µM,"[2]; 10 μM, nine days, untreated controls 100, read-out: Relative Level of RI DNA",42%
same,activity at 10 µM,"[2]; 10 μM, nine days, untreated controls 100, read-out: Relative Level of Total RNA",84%
same,activity at 10 µM,"[2]; 10 μM, nine days, untreated controls 100, read-out: Relative Level of Virion DNA",2%
same,inhibition of Hepatitis B core antigen (HBcAg) levels,[2]; in words,significantly inhibited
same,level or size of HBV induced RNA transcripts of HBsAg,[2]; in words,did not significantly alter
same,"viability at 216 h, 3 µM",[3]; [6],98 ± 3%
same,"viability at 216 h, 10 µM",[3]; [6],102 ± 1%
same,"viability at 216 h, 30 µM",[3]; [6],100 ± 3%
same,"Intracellular HBV DNA, Mono (episomal 3.2-3.8 Kb HBV genomes)",[4]; 0.1 μM,2.7 pg/μg Cell DNA and 2.4 pg/μg Cell DNA and 2.3 pg/μg Cell DNA and 2.5 pg/μg Cell DNA and 2.9 pg/μg Cell DNA and 2.2 pg/μg Cell DNA and 2.6 pg/μg Cell DNA and 2.1 pg/μg Cell DNA
same,"Intracellular HBV DNA, RI (replication intermediates)",[4]; 0.1 μM,54 pg/μg Cell DNA and 62 pg/μg Cell DNA and 51 pg/μg Cell DNA
same,HBV Virion DNA,"[4]; 1 μM, Day 9",9 pg/ml Culture Medium and 8 pg/ml Culture Medium and 12 pg/ml Culture Medium and 10 pg/ml Culture Medium and 13 pg/ml Culture Medium and 11 pg/ml Culture Medium and 14 pg/ml Culture Medium and 16 pg/ml Culture Medium
same,"Intracellular HBV DNA, Mono (episomal 3.2-3.8 Kb HBV genomes)",[4]; 1 μM,2.2 pg/μg Cell DNA and 2.3 pg/μg Cell DNA and 2.4 pg/μg Cell DNA and 2.6 pg/μg Cell DNA and 2.0 pg/μg Cell DNA and 2.1 pg/μg Cell DNA
same,"Intracellular HBV DNA, RI (replication intermediates)",[4]; 1 μM,12 pg/μg Cell DNA and 16 pg/μg Cell DNA and 17 pg/μg Cell DNA and 14 pg/μg Cell DNA and 13 pg/μg Cell DNA and 23 pg/μg Cell DNA and 21 pg/μg Cell DNA and 18 pg/μg Cell DNA
same,HBV Virion DNA,"[4]; 10 μM, Day 0",59 pg/ml Culture Medium and 58 pg/ml Culture Medium and 60 pg/ml Culture Medium and 78 pg/ml Culture Medium and 51 pg/ml Culture Medium and 56 pg/ml Culture Medium and 64 pg/ml Culture Medium
same,HBV Virion DNA,"[4]; 10 μM, Day 3",55 pg/ml Culture Medium and 49 pg/ml Culture Medium and 44 pg/ml Culture Medium and 48 pg/ml Culture Medium and 33 pg/ml Culture Medium and 30 pg/ml Culture Medium and 36 pg/ml Culture Medium and 40 pg/ml Culture Medium
same,HBV Virion DNA,"[4]; 10 μM, Day 6",20 pg/ml Culture Medium and 13 pg/ml Culture Medium and 10 pg/ml Culture Medium and 18 pg/ml Culture Medium and 12 pg/ml Culture Medium and 11 pg/ml Culture Medium and 14 pg/ml Culture Medium
same,"Intracellular HBV DNA, Mono (episomal 3.2-3.8 Kb HBV genomes)",[4]; 10 μM,1.7 pg/μg Cell DNA and 1.9 pg/μg Cell DNA and 1.8 pg/μg Cell DNA and 2.0 pg/μg Cell DNA and 1.3 pg/μg Cell DNA and 1.1 pg/μg Cell DNA and 1.2 pg/μg Cell DNA and 1.0 pg/μg Cell DNA
same,inhibition of HBV virion DNA and intracellular HBV RI DNA levels,"[4]; in words, versus ddC",markedly inhibited; also recorded: substantially inhibited
same,Relative Level of HBeAg,"[5]; 10 μM, nine days, 12960 min",20 % of Untreated Control
same,Relative Level of HBsAg,"[5]; 10 μM, nine days, 12960 min",78 % of Untreated Control and 114 % of Untreated Control
same,activity at 10 µM,"[5]; 10 μM, nine days, read-out: Relative Level of HBeAg",23%
same,effect on HBsAg levels released into the culture medium,[5]; in words,None of the compounds tested
same,reduction in HBeAg and virion DNA levels,[5]; in words,caused a reduction; also recorded: most active compounds in suppressing HBeAg and virion DNA levels
"Nc1ccn([C@H]2CC[C@@H](CO)O2)c(=O)n1 [2',3'-dideoxycytidine, 2', 3'-dideoxycytidine, reference compound]",activity at 10 µM,[1]; [7],108%
same,activity at 10 µM,[1]; [8],106%
same,activity at 10 µM,[1]; [9],2%
same,activity at 10 µM,[2]; read-out: Relative Level of HBcAg,102%
same,activity at 10 µM,[2]; [7],95%
same,activity at 10 µM,[2]; [8],96%
same,activity at 10 µM,[2]; read-out: Relative Level of Intracellular HBV-DNA,6%
same,activity at 10 µM,[2]; read-out: Relative Level of RI DNA,46%
same,activity at 10 µM,[2]; read-out: Relative Level of Total RNA,92%
same,activity at 10 µM,[2]; [9],2%
same,"viability at 216 h, 10 µM","[3]; Trial 1, 10 μM, read-out: % of Control Neutral Red Dye Uptake",101 ± 2%
same,"viability at 216 h, 30 µM","[3]; Trial 1, 30 μM, read-out: % of Control Neutral Red Dye Uptake",100 ± 1%
same,"viability at 216 h, 100 µM",[3]; [10],97 ± 2%
same,"viability at 216 h, 300 µM",[3]; [10],34 ± 4%
same,"viability at 216 h, 10 µM","[3]; Trial 2, 10 μM, read-out: % of Control Neutral Red Dye Uptake",101 ± 3%
same,"viability at 216 h, 30 µM","[3]; Trial 2, 30 μM, read-out: % of Control Neutral Red Dye Uptake",102 ± 2%
same,"viability at 216 h, 300 µM","[3]; Trial 2, read-out: % of Control Neutral Red Dye Uptake",40 ± 4%
same,"viability at 216 h, 1000 µM","[3]; Trial 2, 1000 μM, read-out: % of Control Neutral Red Dye Uptake",12 ± 5%
same,"viability at 216 h, 10 µM","[3]; Trial 3, 10 μM, read-out: % of Control Neutral Red Dye Uptake",100 ± 1%
same,"viability at 216 h, 30 µM","[3]; Trial 3, 30 μM, read-out: % of Control Neutral Red Dye Uptake",102 ± 1%
same,"viability at 216 h, 100 µM",[3]; [11],99 ± 2%
same,"viability at 216 h, 300 µM",[3]; [11],35 ± 2%
same,HBV Virion DNA,"[4]; 10 μM, Day 0",67 pg/ml Culture Medium and 64 pg/ml Culture Medium and 58 pg/ml Culture Medium and 59 pg/ml Culture Medium
same,HBV Virion DNA,"[4]; 10 μM, Day 3",49 pg/ml Culture Medium and 55 pg/ml Culture Medium and 50 pg/ml Culture Medium and 58 pg/ml Culture Medium
same,HBV Virion DNA,"[4]; 10 μM, Day 6",20 pg/ml Culture Medium and 18 pg/ml Culture Medium and 17 pg/ml Culture Medium and 15 pg/ml Culture Medium
same,"Intracellular HBV DNA, RI (replication intermediates)",[4]; 10 μM,8 pg/μg Cell DNA and 7 pg/μg Cell DNA and 9 pg/μg Cell DNA
same,Relative Level of HBeAg,"[5]; 10 μM, nine days, 12960 min",115 % of Untreated Control and 98 % of Untreated Control
same,Relative Level of HBsAg,"[5]; 10 μM, nine days, 12960 min",112 % of Untreated Control and 102 % of Untreated Control
same,Relative Level of Virion DNA,"[5]; 10 μM, nine days, 12960 min",2 % of Untreated Control
same,activity at 10 µM,"[5]; read-out: Relative Level of HBeAg, 10 μM, nine days",101%
same,activity at 10 µM,"[5]; read-out: Relative Level of HBsAg, 10 μM, nine days",100%
same,activity at 10 µM,"[5]; read-out: Relative Level of Virion DNA, 10 μM, nine days",2%
